This assay deals with T1, muscarinic receptor (rat brain).
T1 construct: gene Chrm1; native receptors in particulate (40 000 g pellet) preparation of whole brain without cerebellum; subtype mixture not resolved
The assay is described as follows: [3H]NMS displacement, rat brain membranes, filtration. It counts as binding. Conditions: [3H]NMS 0.3 nM (0.5 nM in data analysis), 30 mM Na+/HEPES pH 7.5, 25 °C, 60 min; competitive. The source says: [3H]NMS displacement, rat brain membranes, filtration on muscarinic receptor (rat brain)
As for `CCc1cc2c(cc1CC)CC(NC[C@H](O)c1ccc(O)c3[nH]c(=O)ccc13)C2` [Indacaterol], the IC50 was 39.3 µM.

For the compound `CCC(NC(C)C)C(O)c1ccc(O)c2[nH]c(=O)ccc12` (stereo not drawn) [Procaterol], the half-inhibitory concentration (IC50) was 3.9 µM.

`CNCc1cc(-c2ccccc2F)n(S(=O)(=O)c2cccnc2)c1` [Vonoprazan] displayed a concentration for half-maximal inhibition (IC50) of 1.7 µM.

With `Nc1nc(CC(=O)Nc2ccc(CCNC[C@H](O)c3ccccc3)cc2)cs1` [Mirabegron], the IC50 came out at 6.62 µM.

As for `OCc1cc([C@@H](O)CNCCCCCCOCCOCc2c(Cl)cccc2Cl)ccc1O` [Vilanterol], the IC50 was found to be 6.1 µM.

For the compound `Cc1c(-c2ccccc2)oc2c(C(=O)OCCN3CCCCC3)cccc2c1=O` [Flavoxate], the IC50 worked out at 11.5 µM.

With `CC#CCn1c(N2CCC[C@@H](N)C2)nc2c1c(=O)n(Cc1nc(C)c3ccccc3n1)c(=O)n2C` [Linagliptin], the IC50 is 2.89 µM.

The compound `OC[C@H]1O[C@@H](c2ccc(Cl)c(Cc3ccc(O[C@H]4CCOC4)cc3)c2)[C@H](O)[C@@H](O)[C@@H]1O` [Empagliflozin] had an IC50 of 22.1 µM.

For `CCc1ccc(C(=O)C(C)CN2CCCCC2)cc1` (stereo not drawn) [Eperisone], the IC50 was found to be 0.902 µM.

On to `NC1=NCC2c3ccccc3Cc3ccccc3N12` (stereo not drawn) [Epinastine], for which the IC50 was determined as 26.3 µM.

`C[N+]1(C)[C@@H]2C[C@@H](OC(=O)C(O)(c3cccs3)c3cccs3)C[C@H]1[C@@H]1O[C@@H]12` [Tiotropium] yielded an IC50 of 0.00039 µM.

Turning to `Cn1c(=O)cc(N2CCC[C@@H](N)C2)n(Cc2ccccc2C#N)c1=O` [Alogliptin], the IC50 is 81.5 µM.

`CN(C)CCC(c1ccc(Cl)cc1)c1ccccn1` (stereo not drawn) [Chlorpheniramine] displayed a half-maximal inhibitory concentration (IC50) of 5.1 µM.

`CCC(=O)O[C@]1(C(=O)SCF)[C@H](C)C[C@H]2[C@@H]3C[C@H](F)C4=CC(=O)C=C[C@]4(C)[C@@]3(F)[C@@H](O)C[C@@]21C` [Fluticasone Propionate] came in with an IC50 of 8 µM.

For the compound `CN(C)CCCN1c2ccccc2Sc2ccc(Cl)cc21` [Chlorpromazine], the IC50 turned out to be 0.376 µM.

`OC(CCN1CCCCC1)(c1ccccc1)C1CC2C=CC1C2` (stereo not drawn) [Biperiden] displayed an IC50 of 0.0105 µM.

The compound `CCCC[C@H](C)C[C@H](O)/C=C/[C@H]1[C@H](O)CC(=O)[C@@H]1CCCC/C=C/C(=O)O` [Limaprost] showed an IC50 of 56.1 µM.

Compound `CN(C)CCOC1=Cc2ccccc2Sc2ccc(Cl)cc21` [Zotepine] returned an IC50 of 0.554 µM.

`OC(CCN1CCCCC1)(c1ccccc1)c1ccccc1` [Pridinol] gave an IC50 of 0.0536 µM.

`CC(C)N(CCC(C(N)=O)(c1ccccc1)c1ccccn1)C(C)C` (stereo not drawn) [Disopyramide]: the IC50 amounted to 5.99 µM.

`CN(C)CCC=C1c2ccccc2CCc2ccccc21` [Amitriptyline] had an IC50 of 0.0293 µM.

Compound `COc1cc(O)c(C(=O)Nc2nc(C(=O)NCCN(C(C)C)C(C)C)cs2)cc1OC` [Acotiamide] gave an IC50 of 44.2 µM.

Compound `CN(CCCCCCN(C)C(=O)Oc1ccc[n+](C)c1)C(=O)Oc1ccc[n+](C)c1` [Distigmine] displayed an IC50 of 1.7 µM.

`OCc1cc(C(O)CNCCCCCCOCCCCc2ccccc2)ccc1O` (stereo not drawn) [Salmeterol] registered an IC50 of 6.1 µM.

For the compound `O=C(O[C@H]1CN2CCC1CC2)N1CCc2ccccc2[C@@H]1c1ccccc1` [Solifenacin], the half-inhibitory concentration (IC50) worked out at 0.00738 µM.

Consider `COc1ccc(CC(C)NCC(O)c2ccc(O)c(NC=O)c2)cc1` (stereo not drawn) [Formoterol], for which the IC50 is 14.3 µM.

`CNCCC=C1c2ccccc2CCc2ccccc21` [Nortriptyline] showed an IC50 of 0.168 µM.

For `CN1CCC2=C(C1)c1ccccc1Cc1ccccc12` [Setiptiline], the IC50 was 1.97 µM.

Compound `CC(C)COCC(CN(Cc1ccccc1)c1ccccc1)N1CCCC1` (stereo not drawn) [Bepridil] gave an IC50 of 20.8 µM.

In turn, `OC(CCCN1CCCCC1)(c1ccccc1)c1ccccc1` [Difenidol] gave an IC50 of 0.325 µM.

In the case of `OC(c1ccccc1)(c1ccccc1)C12CC[N+](CCOCc3ccccc3)(CC1)CC2` [Umeclidinium], the IC50 was 0.00015 µM.

`O=C(Nc1ccc(C[C@@H]2CC[C@H]([C@H](O)c3ccccc3)N2)cc1)[C@@H]1CCc2nccc(=O)n21` [Vibegron] came in with an IC50 of 5.32 µM.

On to `C[N+]1(C)CCCC(OC(=O)C(O)(c2ccccc2)c2ccccc2)C1` (stereo not drawn) [Mepenzolate], for which the IC50 came out at 0.00306 µM.

With `Clc1ccccc1CN1CCc2sccc2C1` [Ticlopidine], the IC50 stood at 18 µM.

Take `CN(C)CCCN1c2ccccc2CCc2ccccc21` [Imipramine]: the IC50 stood at 0.279 µM.

The compound `CNCC[C@H](Oc1cccc2ccccc12)c1cccs1` [Duloxetine] came in with an IC50 of 19.3 µM.

Compound `CCCOC(C(=O)OC1CCN(C)CC1)(c1ccccc1)c1ccccc1` [Propiverine] registered a half-inhibitory concentration (IC50) of 0.35 µM.

The compound `CC(C)C(=O)Oc1ccc(CO)cc1[C@H](CCN(C(C)C)C(C)C)c1ccccc1` [Fesoterodine] displayed an IC50 of 0.012 µM.

As for `Clc1ccc(C(OCCN2CCCCC2)c2ccccc2)cc1` (stereo not drawn) [Cloperastine], the IC50 amounted to 0.0003 µM.

Compound `COc1cc2nc(N3CCN(C(=O)C4COc5ccccc5O4)CC3)nc(N)c2cc1OC` (stereo not drawn) [Doxazosin] had a half-inhibitory concentration (IC50) of 13.2 µM.

`CC(CN(C)C)CN1c2ccccc2CCc2ccccc21` (stereo not drawn) [Trimipramine] gave an IC50 of 0.099 µM.

`CC(C)(C)NCC(O)c1ccccc1Cl` (stereo not drawn) [Tulobuterol] showed an IC50 of 71.9 µM.

`Cc1cncc(CN2CCC(=C3c4ccc(Cl)cc4CCc4cccnc43)CC2)c1` [Rupatadine] displayed an IC50 of 1.51 µM.

As to `COCCCOc1ccnc(C[S+]([O-])c2nc3ccccc3[nH]2)c1C` (stereo not drawn) [Rabeprazole], the IC50 turned out to be 18.1 µM.

Compound `C[C@@H]1C[C@H]2[C@@H]3C[C@H](F)C4=CC(=O)C=C[C@]4(C)[C@@]3(F)[C@@H](O)C[C@]2(C)[C@@]1(OC(=O)c1ccco1)C(=O)SCF` [Fluticasone furoate] had an IC50 of 18.2 µM.

For the origin of these results see paper PMC11503540, “Development of a pharmacological evidence‐based anticholinergic burden scale for medications commonly used in older adults” (Geriatrics & Gerontology International, 2023).
